Test results from patent US20110112135A1, “Imidazo [1,2-A] Pyridine Compounds” (priority 2007, published 2011).

Legend:
ABCA1 gene = assay: Quantitative analysis of ABCA1 gene regulation in THP-1 cells (real-time PCR); format: cell-based, human; details: Gene regulation by LXR (Human), differentiated THP-1 cells, 18 hrs; for EC50: ABCA1 mRNA, read-out: EC50 ABCA1; for Emax: LXR agonist reference at 1.0 uM as positive control, read-out: Agonism ABCA1
Procedure: III. Quantitative Analysis of ABCA1 Gene Regulation in THP-1 Cells. The compounds of formula (I) effect on the regulation of the ABCA1 gene was evaluated using the following procedure. Materials and Methods Cell culture: The THP-1 monocytic cell line (ATCC #TIB-202) was obtained from American Type Culture Collection (Manassas, Va.) and cultured in RPMI 1640 medium (Gibco, Carlsbad, Calif.) containing 10% FBS, 2 mM L-glutamine, and 55 uM beta-Mercaptoethanol (BME). […] Louis, Mo.) for three days to induce differentiation into adherent macrophages. Differentiated THP-1 cells were treated with test compounds or ligands dissolved in DMSO (Sigma, D-8779) in culture medium lacking phorbal ester. […] Dose response effects were measured in duplicate, in the range of 0.001 to 30 micromolar concentrations and treated cells were incubated for an additional 18 hrs prior to RNA isolation. Unstimulated cells treated with vehicle were included as negative controls on each plate. […] L., J. Med. Chem. (2000), 45:1963-1966.). Results of antagonist analysis are expressed as % antagonism and IC50 (in μM). RNA isolation and quantitation: Total cellular RNA was isolated from treated cells cultured in 96-well plates using PrepStation 6100 (Applied Biosystems, Foster City, Calif.), according to the manufacturer's recommendations. RNA was resuspended in ribonuclease-free water and stored at -70° C. prior to analysis. RNA concentrations were quantitated with RiboGreen test procedure, #R-11490 (Molecular Probes, Eugene, Oreg.). Gene expression analysis: Gene-specific mRNA quantitation was performed by real-time PCR with the Perkin Elmer Corp. chemistry on an ABI Prism 7700 Sequence detection system (Applied Biosystems, Foster City, Calif.) according to the manufacturer's instructions. Samples (50-100 ng) of total RNA were assayed in duplicate or triplicate in 50 ul reactions using one-step RT-PCR and the standard curve method to estimate specific mRNA concentrations. Sequences of gene-specific primer and probe sets were designed with Primer Express Software (Applied Biosystems, Foster City, Calif.). […] Relative levels of ABCA1 mRNA are normalized using GAPDH mRNA or 18S rRNA probe/primer sets purchased commercially (Applied Biosystems, Foster City, Calif.). Statistics: Mean, standard deviation and statistical significance of duplicate evaluations of RNA samples were assessed using ANOVA, one-way analysis of variance using SAS analysis. Reagents: -GAPDH Probe and Primers-Taqman GAPDH Control Reagents 402869 or 4310884E 18S Ribosomal RNA-Taqman 18S Control Reagents 4308329 […] Qiagen Quantitect probe RT-PCR 204443.

human LXRβ = molecular target: T1, human LXRβ (Homo sapiens, UniProt P55055); assay: Ligand-binding test procedure for human LXRβ (3H T0901317 tracer, flash plates); details: biotinylated hLXRβ from E. coli extract; tracer 3H T0901317
T1 construct: biotin (biotinylated); made in house; host or cells: E. coli (crude extract)
T1 sequence (P55055 1-460): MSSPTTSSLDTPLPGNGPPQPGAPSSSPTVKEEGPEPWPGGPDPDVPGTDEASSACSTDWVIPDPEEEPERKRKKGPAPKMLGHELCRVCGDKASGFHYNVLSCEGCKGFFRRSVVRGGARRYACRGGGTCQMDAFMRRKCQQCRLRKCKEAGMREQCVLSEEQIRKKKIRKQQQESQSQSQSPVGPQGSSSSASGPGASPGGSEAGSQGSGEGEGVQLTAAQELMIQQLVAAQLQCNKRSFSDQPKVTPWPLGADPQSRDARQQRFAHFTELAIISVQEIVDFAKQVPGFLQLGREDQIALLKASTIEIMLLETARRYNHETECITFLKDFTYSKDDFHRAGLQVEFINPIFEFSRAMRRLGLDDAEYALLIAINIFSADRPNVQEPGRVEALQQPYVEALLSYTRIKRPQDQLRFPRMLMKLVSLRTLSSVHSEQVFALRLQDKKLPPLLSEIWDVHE
How it was run: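 Biotinylated hLXRβ from E. coli extract was captured on streptavidin flash plates (Bmax ~4000 cpm) at 4 °C overnight. Test ligand dilutions were mixed with 5 nM [3H]T0901317 tracer solution and incubated on the plates overnight at 4 °C; bound radioactivity was counted after washing.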

human LXRα = molecular target: T2, human LXRα (Homo sapiens, UniProt Q13133); assay: Ligand-binding test procedure for human LXRα (3H T0901317 tracer, flash plates); details: biotinylated hLXRα from E. coli extract; tracer 3H T0901317
T2 construct: biotin (biotinylated); made in house; host or cells: E. coli (crude extract)
T2 sequence (Q13133 1-447): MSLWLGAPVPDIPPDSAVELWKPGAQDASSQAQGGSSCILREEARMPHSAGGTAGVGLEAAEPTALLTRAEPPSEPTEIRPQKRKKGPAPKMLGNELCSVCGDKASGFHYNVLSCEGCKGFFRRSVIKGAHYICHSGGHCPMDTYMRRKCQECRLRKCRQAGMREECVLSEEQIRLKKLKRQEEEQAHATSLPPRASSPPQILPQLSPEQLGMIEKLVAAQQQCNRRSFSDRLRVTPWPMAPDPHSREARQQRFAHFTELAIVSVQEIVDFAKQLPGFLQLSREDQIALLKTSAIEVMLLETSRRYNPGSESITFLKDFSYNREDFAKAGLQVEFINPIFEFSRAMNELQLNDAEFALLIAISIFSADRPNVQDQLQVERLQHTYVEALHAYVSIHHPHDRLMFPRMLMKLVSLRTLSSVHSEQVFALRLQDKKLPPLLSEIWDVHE
How it was run: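 Biotinylated hLXRα from E. coli extract (50 mM Tris) captured on streptavidin flash plates overnight at 4 °C. Compound dilution series mixed with 5 nM [3H]T0901317 (concentration before mixing), incubated overnight at 4 °C; wells aspirated, washed and remaining radioactivity counted.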

CCS(=O)(=O)c1cccc(Oc2cccc(-c3c(C(C)C)nc4c(Cl)cccn34)c2)c1 [Example 67, 8-chloro-3-{3-[3-(ethylsulfonyl)phenoxy]phenyl}-2-isopropylimidazo[1,2-a]pyridine] gave an EC50 (ABCA1 gene) of 1620 nM, an Emax (ABCA1 gene) of 81% and an IC50 (human LXRβ) of 9.5 nM. For the same molecule, the IC50 (human LXRα) was 405 nM.
In the case of CC(C)c1nc2c(Cl)cccn2c1-c1cccc(Oc2cccc(S(=O)(=O)C(C)C)c2)c1 [Example 68, 8-chloro-2-isopropyl-3-{3-[3-(isopropylsulfonyl)phenoxy]phenyl}imidazo[1,2-a]pyridine], the EC50 (ABCA1 gene) is reported as 1260 nM, the Emax (ABCA1 gene) is reported as 93% and the IC50 (human LXRβ) is reported as 7.1 nM. It also gave an IC50 (human LXRα) of 406 nM.
CCc1nc2c(C#N)cccn2c1-c1cccc(Oc2cccc(S(=O)(=O)CC)c2)c1 [Example 70, 2-ethyl-3-{3-[3-(ethylsulfonyl)phenoxy]phenyl}imidazo[1,2-a]pyridine-8-carbonitrile] was tested, and the EC50 (ABCA1 gene) was 1260 nM, the Emax (ABCA1 gene) was 95% and the IC50 (human LXRβ) was 107 nM. For the same molecule, the IC50 (human LXRα) was 4670 nM.
In the case of CCc1nc2c(C#N)cccn2c1-c1cccc(Oc2cccc(S(=O)(=O)C(C)C)c2)c1 [Example 71, 2-ethyl-3-{3-[3-(isopropylsulfonyl)phenoxy]phenyl}imidazo[1,2-a]pyridine-8-carbonitrile], the EC50 (ABCA1 gene) is reported as 1940 nM, the Emax (ABCA1 gene) is reported as 96% and the IC50 (human LXRβ) is reported as 37.2 nM. The IC50 (human LXRα) was 2430 nM.
Molecule CCS(=O)(=O)c1cccc(Oc2cccc(-c3c(C(C)C)nc4c(C#N)cccn34)c2)c1 [Example 73, 3-{3-[3-(ethylsulfonyl)phenoxy]phenyl}-2-isopropylimidazo[1,2-a]pyridine-8-carbonitrile] has an EC50 (ABCA1 gene) of 2040 nM, an Emax (ABCA1 gene) of 82% and an IC50 (human LXRβ) of 36.5 nM. For the same molecule, the IC50 (human LXRα) was 1880 nM.
Work on CC(C)c1nc2c(C#N)cccn2c1-c1cccc(Oc2cccc(S(=O)(=O)C(C)C)c2)c1 [Example 74, 2-isopropyl-3-{3-[3-(isopropylsulfonyl)phenoxy]phenyl}imidazo[1,2-a]pyridine-8-carbonitrile] yielded an EC50 (ABCA1 gene) of 560 nM, an Emax (ABCA1 gene) of 97% and an IC50 (human LXRβ) of 24 nM. It also gave an IC50 (human LXRα) of 1260 nM.
Molecule CC(C)(C)c1nc2c(C(F)(F)F)cccn2c1-c1cccc(Oc2cccc(S(=O)(=O)CCCO)c2)c1 [Example 78, 3-[(3-{3-[2-tert-butyl-8-(trifluoromethyl)imidazo[1,2-a]pyridin-3-yl]phenoxy}phenyl)sulfonyl]propan-1-ol] has an EC50 (ABCA1 gene) of 1460 nM, an Emax (ABCA1 gene) of 92% and an IC50 (human LXRβ) of 9 nM. For the same molecule, the IC50 (human LXRα) was 167 nM.
CCS(=O)(=O)c1cccc(Oc2cccc(-c3c(C(C)(C)C)nc4c(C#N)cccn34)c2)c1 [Example 79, 2-tert-butyl-3-{3-[3-(ethylsulfonyl)phenoxy]phenyl}imidazo[1,2-a]pyridine-8-carbonitrile] was tested, and the EC50 (ABCA1 gene) was 285 nM, the Emax (ABCA1 gene) was 60% and the IC50 (human LXRβ) was 23.7 nM. The IC50 (human LXRα) was 745 nM.
Work on CC(C)c1nc2c(C#N)cccn2c1-c1cc(Oc2cccc(S(C)(=O)=O)c2)ccc1Cl [Example 82, 3-{2-chloro-5-[3-(methylsulfonyl)phenoxy]phenyl}-2-isopropylimidazo[1,2-a]pyridine-8-carbonitrile] yielded an EC50 (ABCA1 gene) of 290 nM, an Emax (ABCA1 gene) of 70% and an IC50 (human LXRβ) of 11.5 nM. For the same molecule, the IC50 (human LXRα) was 309 nM.
CCS(=O)(=O)c1cccc(Oc2ccc(Cl)c(-c3c(C(C)C)nc4c(C#N)cccn34)c2)c1 [Example 83, 3-{2-chloro-5-[3-(ethylsulfonyl)phenoxy]phenyl}-2-isopropylimidazo[1,2-a]pyridine-8-carbonitrile] gave an EC50 (ABCA1 gene) of 260 nM, an Emax (ABCA1 gene) of 76% and an IC50 (human LXRβ) of 6.8 nM. It also gave an IC50 (human LXRα) of 218 nM.
With CC(C)c1nc2c(C#N)cccn2c1-c1cc(Oc2cccc(S(=O)(=O)C(C)C)c2)ccc1Cl [Example 84, 3-{2-chloro-5-[3-(isopropylsulfonyl)phenoxy]phenyl}-2-isopropylimidazo[1,2-a]pyridine-8-carbonitrile] the EC50 (ABCA1 gene) was 375 nM, the Emax (ABCA1 gene) was 70% and the IC50 (human LXRβ) was 8.5 nM. The IC50 (human LXRα) was 276 nM.
Molecule CC(C)c1nc2c(C(F)(F)F)cccn2c1-c1ccc(-c2ccc(S(=O)(=O)C(C)C)cc2)cc1 [Example 91, 2-isopropyl-3-(4′-(isopropylsulfonyl)biphenyl-4-yl)-8-(trifluoromethyl)imidazo[1,2-a]pyridine] has an EC50 (ABCA1 gene) of 2780 nM, an Emax (ABCA1 gene) of 33% and an IC50 (human LXRβ) of over 1000 nM. It also gave an IC50 (human LXRα) of over 1000 nM.
In the case of CC(C)c1nc2c(C(F)(F)F)cccn2c1-c1ccc(Oc2cccc(S(C)(=O)=O)c2)cc1 [Example 119, 2-(1-methylethyl)-3-{4-[3-(methylsulfonyl)phenoxy]phenyl}-8-(trifluoromethyl)imidazo[1,2-a]pyridine], the EC50 (ABCA1 gene) is reported as 620 nM, the Emax (ABCA1 gene) is reported as 59% and the IC50 (human LXRβ) is reported as 179 nM. The IC50 (human LXRα) was over 1000 nM.
In the case of CCS(=O)(=O)c1cccc(Oc2ccc(-c3c(C(C)C)nc4c(C(F)(F)F)cccn34)cc2)c1 [Example 120, 3-{4-[3-(ethylsulfonyl)phenoxy]phenyl}-2-(1-methylethyl)-8-(trifluoromethyl)imidazo[1,2-a]pyridine], the EC50 (ABCA1 gene) is reported as 590 nM, the Emax (ABCA1 gene) is reported as 53% and the IC50 (human LXRβ) is reported as 117 nM. It also gave an IC50 (human LXRα) of over 1000 nM.
For COc1ccccc1-c1nc2c(C(F)(F)F)cccn2c1-c1ccc(Oc2cccc(S(C)(=O)=O)c2)cc1 [Example 126, 2-(2-methoxyphenyl)-3-{4-[3-(methylsulfonyl)phenoxy]phenyl}-8-(trifluoromethyl)imidazo[1,2-a]pyridine], the EC50 (ABCA1 gene) was 25 nM, the Emax (ABCA1 gene) was 30% and the IC50 (human LXRβ) was 14 nM. For the same molecule, the IC50 (human LXRα) was 290 nM.
CCCCOCc1nc2c(C(F)(F)F)cccn2c1-c1ccc(Oc2cccc(S(C)(=O)=O)c2)cc1 [Example 128, 2-(butoxymethyl)-3-{4-[3-(methylsulfonyl)phenoxy]phenyl}-8-(trifluoromethyl)imidazo[1,2-a]pyridine] gave an EC50 (ABCA1 gene) of 40 nM, an Emax (ABCA1 gene) of 76% and an IC50 (human LXRβ) of 28 nM. It also gave an IC50 (human LXRα) of 430 nM.
Molecule CS(=O)(=O)c1cccc(Oc2cccc(-c3c(Cn4ccnc4)nc4c(C(F)(F)F)cccn34)c2)c1 [Example 129, 2-(1H-imidazol-1-ylmethyl)-3-{3-[3-(methylsulfonyl)phenoxy]phenyl}-8-(trifluoromethyl)imidazo[1,2-a]pyridine] has an EC50 (ABCA1 gene) of 135 nM, an Emax (ABCA1 gene) of 103% and an IC50 (human LXRβ) of 30 nM. For the same molecule, the IC50 (human LXRα) was 370 nM.
